# Legend:
# [1] = tested on: RARα; test: QRT-PCR gene expression in HaCaT cells with or without UVA; format: cell-based, human
# Experimental: (§1) HaCaT cells were obtained from Prof. Fusenig, German Cancer Research Centre, Heidelberg. […] The accuracy of cell counting was approximately 99%.
# (§2) On day 3 of the experiment, cells were washed six times with Ca/Mg-free PBS containing 2% BSA, and then irradiated with light with a Hönle sun lamp Sol 500 (Dr. Hönle, Plannegg, Germany) at a dose of 270 kJ/m^2 in Ca/Mg-free PBS (2 hour exposure time at […]). The experimental schedule was chosen because the cells had optimal UVA sensitivity after 48 hours in culture. […] Confluent cultures were much less sensitive to irradiation.
# (§3) After irradiation, the cells were supplied with fresh β-carotene-containing serum-free medium and kept in the incubator at 37° C., 5% CO2 until harvest of the samples. In experiments in which the half-life of ^1O2 was prolonged by D2O to enhance its effect, PBS was prepared in D2O, instead of in H2O, as it was done for the standard conditions described above. Cells were washed twice in D2O-PBS prior to irradiation in D2O-PBS. After irradiation, cells were maintained with fresh β-carotene-containing serum-free medium. Sham controls were treated in an identical manner, by placing them under the solar simulator but shielded from light.
# (§4) Total RNA was isolated by using Trizol™ (Invitrogen, Basel, Switzerland) according to the instructions of the manufacturer. Random-primed cDNA was synthesized using the Superscript pre-amplification system for first strand cDNA synthesis (Invitrogen).
# (§5) cDNA corresponding to 10 ng total RNA was used as template to quantify the relative RNA expression of the genes of interest by TaqMan® real time PCR.
# (§6) The PCR analyses were carried out in triplicate and in a multiplex setup, using 18S rRNA as a calibrator gene. The rRNA primers were used at a final concentration of 50 nM, the probe at 100 nM. For quantification of the genes of interest, the primer concentrations were optimized for sensitivity of template detection. […] PCR reactions were carried out for 40 cycles of 95° C. for 15 seconds and 60° C. for 1 minute in an ABI7700 (Applied Biosystems, Rotkreuz, Switzerland). Regulation of gene expression was calculated as described in user bulletin #2 provided by the manufacturer. A threshold cycle (“CT”) is the first PCR cycle in which an amplification signal is detected. Expression levels are given as δCT values. The δCT value describes the level of gene expression as the average PCR cycle, in which the gene of interest was detected first (CT value), subtracted by the CT value of the calibrator gene 18S rRNA (CTgene of interest−CTcalibrating gene), 18S rRNA served as a measure for the amount of template in the reaction. Routinely, 18S rRNA was detected between PCR cycle 12 and 13 (SE=standard error) A low δCT corresponds to a high mRNA level.
# (§7) HaCaT cells were pretreated for 2 days with 0.5, 1.5 or 3 μM β-carotene. The cells were irradiated with UVA (270 kJ/m^2) either in D2O-containing PBS or in H2O-containing PBS, to analyze ^1O2 inducibility of genes. Gene expression 5 hours after UVA irradiation was analyzed by QRT-PCR. Values are geometric means±standard error from three independent experiments. Upregulations greater than 1.5-fold are labelled in bold black, downregulations below 0.66-fold are bold grey.
# [2] = tested on: RARγ; test: as above; format: cell-based, human
# Experimental: as §1, §2, §3, §4, §5, §6, §7
structure (smiles),measurement,setting,value
"CC1=C(/C=C/C(C)=C/C=C/C(C)=C/C=C/C=C(C)/C=C/C=C(C)/C=C/C2=C(C)CCCC2(C)C)C(C)(C)CCC1 [β-carotene, All-E-β-carotene]",basal or UVA-regulated expression level of RARα,[1],no significant effect
same,RARα fold induction,"[1]; D2O, UVA/βC 0.5 μM",1.06 fold
same,RARα fold induction,"[1]; D2O, UVA/βC 1.5 μM",1.21 fold
same,RARα fold induction,"[1]; D2O, UVA/βC 3 μM",0.52 fold
same,RARα fold induction,"[1]; D2O, βC 0.5 μM",1.01 fold
same,RARα fold induction,"[1]; D2O, βC 1.5 μM",1.02 fold
same,RARα fold induction,"[1]; D2O, βC 3 μM",1.18 fold
same,RARα fold induction,"[1]; H2O, UVA/βC 0.5 μM",1.45 fold
same,RARα fold induction,"[1]; H2O, UVA/βC 1.5 μM",0.47 fold
same,RARα fold induction,"[1]; H2O, UVA/βC 3 μM",0.71 fold
same,RARα fold induction,"[1]; H2O, βC 0.5 μM",0.56 fold
same,RARα fold induction,"[1]; H2O, βC 1.5 μM",0.67 fold
same,RARα fold induction,"[1]; H2O, βC 3 μM",0.55 fold
same,basal or UVA-regulated expression level of RARγ,[2],no significant effect
same,RARγ fold induction,"[2]; D2O, UVA/βC 0.5 μM",0.63 fold
same,RARγ fold induction,"[2]; D2O, UVA/βC 1.5 μM",0.67 fold
same,RARγ fold induction,"[2]; D2O, UVA/βC 3 μM",0.76 fold
same,RARγ fold induction,"[2]; D2O, βC 0.5 μM",0.94 fold
same,RARγ fold induction,"[2]; D2O, βC 1.5 μM",1.11 fold
same,RARγ fold induction,"[2]; D2O, βC 3 μM",1.12 fold
same,RARγ fold induction,"[2]; H2O, UVA/βC 0.5 μM",0.85 fold
same,RARγ fold induction,"[2]; H2O, UVA/βC 1.5 μM",0.15 fold
same,RARγ fold induction,"[2]; H2O, UVA/βC 3 μM",0.54 fold
same,RARγ fold induction,"[2]; H2O, βC 0.5 μM",0.74 fold
same,RARγ fold induction,"[2]; H2O, βC 1.5 μM",0.86 fold
same,RARγ fold induction,"[2]; H2O, βC 3 μM",0.90 fold

# Source: patent publication US20160304957A1, “TREATMENT AND MODULATION OF GENE EXPRESSION AND SKIN AGING” (DSM NUTRITIONAL PRODUCTS LTD., priority 2006, published 2016)
